Experimental data reported in patent publication US11882828B2, “Mosquito vector control compositions, methods and products utilizing same” (priority 2015, dated 2024).

Experiments:
Assay in all cases: whole plant or invertebrate
[1] = tested on: Aedes aegypti (Yellow fever mosquito)
Protocol: […] Once the deposits were dry, five non-blood fed adult female Aedes aegypti (between two to five days old) were added to each well, and sustained with a 10% sucrose solution in a cotton wool plug. Assessment of the knockdown after 1 hour, and mortality after 48 hours was carried out.
(§1) In case of multiple tests, the mean value is reported.

[2] = tested on: Anopheles stephensi (Indian malaria mosquito)
Protocol: […] Once the deposits were dry, five non-blood fed adult female Anopheles stephensi (between two to five days old) were added to each well, and sustained with a 10% sucrose solution in a cotton wool plug. Assessment of the knockdown after 1 hour, and mortality after 48 hours was carried out.
as §1

Anopheles stephensi = tested on: Anopheles stephensi
Protocol: (§2) The individual wells of six (6) well tissue culture plates were treated with 250 μl of an ethanol solution containing a test compound at a defined concentration. Once the deposits were dry, ten non-blood fed adult female Aedes aegypti or Anopheles stephensi (each between two to five day old) were added to each well, and sustained with a 10% sucrose solution in a cotton wool plug.
(§3) Assessment of the mortality was carried out at 48 hours.
(§4) Each treatment was replicated twice, with the mean mortality recorded.

Aedes aegypti = tested on: Aedes aegypti
Protocol: as §2, §3, §4

[3] = Aedes aegypti, 1 h, read-out: Knockdown
[4] = Anopheles stephensi, 1 h, read-out: Knockdown

| SMILES | pest or weed control at 20 ppm [1, 3] [%] | mortality at 20 ppm ([1]; Aedes aegypti, 48 h) [%] | pest or weed control at 20 ppm [2, 4] [%] | mortality at 20 ppm ([2]; Anopheles stephensi, 48 h) [%] | also measured |
| --- | --- | --- | --- | --- | --- |
| CC1(C)[C@H](C(=O)O[C@H](C#N)c2cccc(Oc3ccccc3)c2)[C@@H]1/C=C(\Cl)C(F)(F)F (racemic) [Lambda-cyhalothrin, reference compound] | – | – | – | – | pest or weed control at 2 ppm [1, 3]: 92%; mortality at 2 ppm ([1]; Aedes aegypti, 48 h): 100%; pest or weed control at 2 ppm [2, 4]: 83%; mortality at 2 ppm ([2]; Anopheles stephensi, 48 h): 100%; mortality at 0.2 ppm (Anopheles stephensi; Anopheles stephensi, 48 h): 84%; mortality at 0.2 ppm (Aedes aegypti; Aedes aegypti, 48 h): 99% |
| CO/C=C(/C(=O)OC)c1ccccc1Oc1ncc(C(C)(C)C)s1 [AA] | 0 | 0 | – | – | – |
| C=CCOC(=O)c1cccn1/C(=C\OC)C(=O)OC [AB, reference compound] | 60 | 100 | 100 | 100 | mortality at 5 ppm (Anopheles stephensi; Anopheles stephensi, 48 h): 80%; mortality at 5 ppm (Aedes aegypti; Aedes aegypti, 48 h): 75% |
| CO/C=C(/C(=O)OC)c1ccccc1COc1cccc(C(F)(F)F)n1 [AC, Picoxystrobin, reference compound] | 0 | 40 | 100 | 100 | mortality at 5 ppm (Anopheles stephensi; Anopheles stephensi, 48 h): 75%; mortality at 5 ppm (Aedes aegypti; Aedes aegypti, 48 h): 4% |
| CCc1nnc(Oc2ccccc2/C(=C\OC)C(=O)OC)s1 [AD] | 0 | 0 | – | – | – |
| CCCCO/N=C(C)/C(C)=N/OCc1ccccc1/C(=C\OC)C(=O)OC [B] | 0 | 0 | – | – | – |
| CO/C=C(/C(=O)OC)c1ccccc1COc1cc(C(F)(F)F)nc(OC(C)C)n1 [C, Fluacrypyrim] | 0 | 0 | – | – | – |
| CO/C=C(/C(=O)OC)c1ccccc1CO/N=C(C)/C(C)=N/OC [Compound 1] | 50 | 90 | 40 | 100 | mortality at 5 ppm (Anopheles stephensi; Anopheles stephensi, 48 h): 100%; mortality at 5 ppm (Aedes aegypti; Aedes aegypti, 48 h): 74% |
| CO/C=C(/C(=O)OC)c1ccccc1Oc1nnc(C(C)(C)C)o1 [Compound 2, methyl (E)-2-[2-[(5-tert-butyl-1,3,4-oxadiazol-2-yl)oxy]phenyl]-3-methoxy-prop-2-enoate] | 0 | 80 | 40 | 100 | mortality at 5 ppm (Anopheles stephensi; Anopheles stephensi, 48 h): 100%; mortality at 5 ppm (Aedes aegypti; Aedes aegypti, 48 h): 90% |
| CO/C=C(/C(=O)OC)c1ccccc1Oc1cncc(OCC(F)(F)F)n1 [Compound 3] | 0 | 100 | 100 | 100 | – |
| CO/C=C(/C(=O)OC)c1ccccc1Oc1cc(C(C)(C)C)ncn1 [Compound 9] | 0 | 80 | 100 | 100 | – |
| CO/C=C(/C(=O)OC)c1ccccc1Oc1cc(C(F)(F)F)ncn1 [Compound 11, methyl (E)-3-methoxy-2-[2-[6-(trifluoromethyl)pyrimidin-4-yl]oxyphenyl]prop-2-enoate] | 100 | 100 | 80 | 100 | – |
| CO/C=C(/C(=O)OC)c1ccccc1Oc1nccc(C(C)(C)C)n1 [Compound 14] | 0 | 40 | 0 | 100 | – |
| CO/C=C(/C(=O)OC)c1ccccc1CO/N=C(\C)c1cc(C(F)(F)F)ccn1 [Compound 15] | 50 | 100 | 40 | 100 | mortality at 5 ppm (Anopheles stephensi; Anopheles stephensi, 48 h): 95%; mortality at 5 ppm (Aedes aegypti; Aedes aegypti, 48 h): 70% |
| CCCc1cccc(OCc2ccccc2/C(=C\OC)C(=O)OC)n1 [Compound 16] | 0 | 80 | 20 | 100 | mortality at 5 ppm (Anopheles stephensi; Anopheles stephensi, 48 h): 95%; mortality at 5 ppm (Aedes aegypti; Aedes aegypti, 48 h): 20% |
| CO/C=C(/C(=O)OC)c1ccccc1CO/N=C(\C)c1cc(C(F)(F)C(F)(F)F)ncn1 [Compound 18] | 0 | 40 | 100 | 100 | mortality at 5 ppm (Anopheles stephensi; Anopheles stephensi, 48 h): 100%; mortality at 5 ppm (Aedes aegypti; Aedes aegypti, 48 h): 70% |
| CO/C=C(/C(=O)OC)c1ccccc1COc1ncccc1C(F)(F)F [Compound 19, Methyl (E)-3-methoxy-2-[2-[[3-(trifluoromethyl)-2-pyridyl]oxymethyl]phenyl]prop-2-enoate] | 20 | 100 | 40 | 100 | mortality at 5 ppm (Anopheles stephensi; Anopheles stephensi, 48 h): 100%; mortality at 5 ppm (Aedes aegypti; Aedes aegypti, 48 h): 75% |
| CO/C=C(/C(=O)OC)c1ccccc1COc1nccnc1C(F)(F)F [Compound 20, Methyl (E)-3-methoxy-2-[2-[[3-(trifluoromethyl)pyrazin-2-yl]oxymethyl]phenyl]prop-2-enoate] | 100 | 100 | 100 | 100 | mortality at 5 ppm (Anopheles stephensi; Anopheles stephensi, 48 h): 100%; mortality at 5 ppm (Aedes aegypti; Aedes aegypti, 48 h): 70% |
| CO/C=C(/C(=O)OC)c1ccccc1COc1ncc(C(F)(F)F)cc1C(F)(F)F [Compound 21] | 50 | 90 | 100 | 100 | mortality at 5 ppm (Anopheles stephensi; Anopheles stephensi, 48 h): 100%; mortality at 5 ppm (Aedes aegypti; Aedes aegypti, 48 h): 85% |
| CO/C=C(/C(=O)OC)c1ccccc1COc1nc(F)c(F)cc1F [Compound 23] | 100 | 100 | 20 | 100 | mortality at 5 ppm (Anopheles stephensi; Anopheles stephensi, 48 h): 93%; mortality at 5 ppm (Aedes aegypti; Aedes aegypti, 48 h): 60% |
| Clc1ccc(C(c2ccc(Cl)cc2)C(Cl)(Cl)Cl)cc1 [DDT, reference compound] | – | – | – | – | Knockdown ([1]; 10 ppm, after 1 hour): 35%; mortality ([1]; 10 ppm, after 48 hours): 90%; Knockdown ([2]; 10 ppm, after 1 hour): 70%; mortality ([2]; 10 ppm, after 48 hours): 80%; mortality (Anopheles stephensi; 5 ppm, at 48 hours): 59%; mortality (Aedes aegypti; 5 ppm, at 48 hours): 85% |
| CO/C=C(/C(=O)OC)c1ccccc1Oc1ncc([N+](=O)[O-])s1 [D] | 0 | 0 | – | – | – |

| SMILES | pest or weed control at 20 ppm [1, 3] [%] | mortality at 20 ppm ([1]; Aedes aegypti, 48 h) [%] | pest or weed control at 20 ppm [2, 4] [%] | mortality at 20 ppm ([2]; Anopheles stephensi, 48 h) [%] | also measured |
| --- | --- | --- | --- | --- | --- |
| CO/C=C(/C(=O)OC)c1ccccc1CCc1cc(C(F)(F)F)ccn1 [E] | 0 | 0 | – | – | – |
| CO/C=C(/C(=O)OC)c1ccccc1COc1ncccc1Cl [F, reference compound] | 0 | 60 | 60 | 100 | mortality at 5 ppm (Anopheles stephensi; Anopheles stephensi, 48 h): 20%; mortality at 5 ppm (Aedes aegypti; Aedes aegypti, 48 h): 30% |
| CO/C=C(/C(=O)OC)c1ccccc1CO/N=C(\C)c1cc(C(F)(F)F)ncn1 [G] | 0 | 0 | – | – | – |
| CO/C=C(/C(=O)OC)c1ccccc1CO/N=C(\C)c1cccc(C(F)(F)F)n1 [H] | 0 | 0 | – | – | – |
| CO/C=C(/C(=O)OC)c1ccccc1Oc1cc(Cl)ccn1 [I] | 0 | 40 | – | – | – |
| CO/C=C(/C(=O)OC)c1ccccc1Oc1cc(OCC(F)(F)F)ncn1 [J] | 0 | 0 | – | – | – |
| CCCc1nnc(Oc2ccccc2/C(=C\OC)C(=O)OC)o1 [K] | 0 | 0 | – | – | – |
| CCC(CC)/C(C)=N/OCc1ccccc1/C(=C\OC)C(=O)OC [L] | 0 | 0 | – | – | – |
| CO/C=C(/C(=O)OC)c1ccccc1Oc1nc(CC(C)(C)C)ns1 [M] | 0 | 0 | – | – | – |
| CO/C=C(/C(=O)OC)c1ccccc1Oc1nccc(OC(C)(C)C)n1 [N] | 0 | 0 | – | – | – |
| CO/C=C(/C(=O)OC)c1ccccc1Oc1ncnc(C2CC2)n1 [O] | 0 | 0 | – | – | – |
| CO/C=C(/C(=O)OC)c1ccccc1COc1cccc(C(C)(C)C)n1 [P] | 0 | 0 | – | – | – |
| CN/C(C)=N/OCc1ccccc1/C(=C\OC)C(=O)OC [Q] | 0 | 0 | – | – | – |
| CO/C=C(/C(=O)OC)c1ccccc1CO/N=C(C)/C=C/c1ccc(Cl)cc1 [R, Enoxastrobin] | 0 | 0 | – | – | – |
| CO/C=C(/C(=O)OC)c1ccccc1COc1cc(-c2ccc(Cl)cc2)nn1C [S, Pyraoxystrobin] | 0 | 0 | – | – | – |
| CCCCc1c(C)c2ccc(OCc3ccccc3/C(=C\OC)C(=O)OC)cc2oc1=O [T, Coumoxystrobin] | 0 | 0 | – | – | – |
| CO/C=C(/C(=O)OC)c1ccccc1COc1cc(C(F)(F)F)nc(Nc2ccc(Cl)cc2Cl)n1 [U, Pyriminostrobin] | 0 | 0 | – | – | – |
| CO/C=C(/C(=O)OC)c1ccccc1COc1nc2cc(C(F)(F)F)ccc2nc1C(F)(F)F [V] | 0 | 0 | – | – | – |
| CO/C=C(/C(=O)OC)c1ccccc1COc1nc2ccc(C(F)(F)F)cc2nc1C(F)(F)F [W] | 0 | 0 | – | – | – |
| CO/C=C(/C(=O)OC)c1ccccc1COc1nccnc1C#N [X] | 0 | 0 | – | – | – |
| CO/C=C(/C(=O)OC)c1ccccc1Oc1nnc(C(C)(C)C)s1 [Y] | 0 | 0 | – | – | – |
| CCC(C)c1noc(Oc2ccccc2/C(=C\OC)C(=O)OC)n1 (centres unmarked) [Z] | 0 | 0 | – | – | – |
